According to patent publication US20120148685A1, “METHODS AND COMPOSITIONS FOR TREATING INSULIN RESISTANCE, DIABETES MELLITUS TYPE 2, METABOLIC SYNDROME AND RELATED DISORDERS” (Engergy4Life AG, priority 2009, published 2012):
Marks after values point to notes of the source that are not given here.

How the values were obtained:
[1] = Feed intake, body weight development and feed conversion ratio of Zucker rats fed supplemented diets; type: in vivo
Text: Zucker rats are an established model of human early-onset, hyperplastic-hypertrophic obesity and insulin resistance as well as human non-insulin dependent diabetes mellitus.
(§1) A total of 60 male, 8-10 week old, obese (fa/fa) Zucker rats (Crl:ZUC-Leprfa; Charles River, France) with an initial body weight of 358±24 (mean±SD) g were randomly assigned to five groups of twelve rats each. In addition, 12 male, 8-10 week old, heterozygous lean (fa/+) Zucker rats with an initial body weight of 271±10 g were used as a lean control group. All rats were kept individually in Macrolon cages in a room maintained at 22±1° C. and 50-60% relative humidity with lighting from 06.00 to 18.00 hours. All experimental procedures described followed established guidelines for the care and handling of laboratory animals and were approved by the local Animal Care and Use Committee.
(§2) The rats were fed semi-purified diets which were composed according to the recommendations of the American Institute of Nutrition (AIN)-93G. Five different diets were used differing in their supplementation. […] Diets were prepared by mixing the dry components and subsequent pelleting with a standard pelleting device (Kahl Laborpressanlage Typ 14-175; Reinbek, Germany). Feed was administered ad libitum, and feed intake was recorded weekly. Experimental diets were fed for 4 weeks. Water was available ad libitum from nipple drinkers during the whole experiment.

[2] = Organ weights of the rats; type: in vivo; settings: obese (fa/fa) Zucker rats, supplemented diet fed 4 wk, means ± SD (n = 12)
Procedure: (§3) All rats were kept individually in Macrolon cages in a room maintained at 22±1° C. and 50-60% relative humidity with lighting from 06.00 to 18.00 hours. All experimental procedures described followed established guidelines for the care and handling of laboratory animals and were approved by the local Animal Care and Use Committee.
(§4) Five different diets were used differing in their supplementation. […] Feed was administered ad libitum, and feed intake was recorded weekly. Experimental diets were fed for 4 weeks. Water was available ad libitum from nipple drinkers during the whole experiment.

[3] = Plasma and lipoprotein lipid concentrations (triacylglycerol, cholesterol; enzymatic kits); type: in vivo, Zucker rats; settings: for Cholesterol, HDL / Cholesterol, Plasma / Cholesterol, VLDL + LDL / Triacylglycerols, Plasma / Triacylglycerols, VLDL + LDL: obese (fa/fa) Zucker rats, supplemented diet 4 wk, fasted, means ± SD (n = 12); for TAG concentration in plasma compared with the niacin+DHA+carnitine group / TAG concentrations in plasma compared with the control group / Cholesterol in the VLDL+LDL fraction compared with the obese control group / TAG concentration in the VLDL+LDL fraction compared with the obese control group: within the obese rats; for TAG concentration in plasma compared with the niacin+DHA+carnitine group / TAG concentrations in plasma compared with the control group: P<0.05; for Cholesterol in the VLDL+LDL fraction compared with the obese control group / TAG concentration in the VLDL+LDL fraction compared with the obese control group: P<0.05 where different
Procedure: as §1, §2
(§5) The rats were decapitated under CO2 anesthesia in the fasted state. Whole blood was collected into EDTA polyethylene tubes (Sarstedt, Nürnbrecht, Germany). Plasma was separated from whole blood by centrifugation (1,100×g; 10 min) at 4° C. Lipoproteins [VLDL, LDL and high-density lipoproteins (HDL)] were separated by step-wise ultracentrifugation (900,000×g, 1.5 h, 4° C.; Mikro-Ultrazentrifuge, Sorvall Products, Bad Homburg, Germany). All samples were stored at −20° C. pending analysis.
Triacylglycerol and cholesterol concentrations in plasma and lipoproteins were determined using enzymatic reagent kits from Biocon (Vöhl-Marienhagen, Germany).

[4] = Fasting glucose concentration in plasma; type: in vivo, Zucker rats; settings: for Glucose in plasma: obese (fa/fa) Zucker rats, supplemented diet 4 wk, fasted, means ± SD (n = 12); for Fasting glucose concentration compared with the obese control group: within the obese rats, in words, P<0.05 where different
Procedure: as §1, §2, §5
Glucose concentration in plasma was determined by an enzymatic reagent kit from Analyticon Biotechnologies (Lichtenfels, Germany).

[5] = Non-esterified fatty acids (NEFA) in plasma; type: in vivo, Zucker rats; settings: for NEFA in plasma: obese (fa/fa) Zucker rats, supplemented diet 4 wk, fasted, means ± SD (n = 12); for NEFA concentrations in plasma compared with the obese control group: within the obese rats, in words, P<0.05
Procedure: as §1, §2, §5
NEFA concentrations in plasma were determined using the NEFA kit from Wako Chemicals (Neuss, Germany).

[6] = test system: leptin; experiment: Leptin in plasma (rat ELISA); type: in vivo, Zucker rats; settings: for Leptin in plasma: obese (fa/fa) Zucker rats, supplemented diet 4 wk, fasted, means ± SD (n = 12); for Leptin concentrations in plasma compared with the obese control group: within the obese rats, in words, P<0.05 where different
Procedure: as §1, §2, §5
(§6) Concentrations of leptin in plasma was determined by rat ELISA kits from BioVendor (Heidelberg, Germany). Concentration of high molecular weight adiponectin was determined by a rat ELISA kit from Shibayagi (Ishihara, Shibukawa, Gunma, Japan).

[7] = test system: high molecular weight adiponectin; experiment: High molecular weight adiponectin in plasma (rat ELISA); type: in vivo; settings: obese (fa/fa) Zucker rats, supplemented diet 4 wk, fasted, means ± SD (n = 12)
Procedure: as §1, §2, §5, §6

[8] = test system: sterol regulatory element-binding protein (SREBP)-1c; experiment: Relative mRNA concentration in liver, lipogenesis: SREBP-1c; type: in vivo, Zucker rats
Procedure: as §3, §4

[9] = test system: fatty acid synthase (FAS); experiment: Relative mRNA concentration in liver, lipogenesis: FAS; type: in vivo, Zucker rats
Procedure: as §3, §4

[10] = test system: stearoyl-CoA desaturase (SCD); experiment: Relative mRNA concentration in liver, lipogenesis: SCD; type: in vivo; settings: liver of obese Zucker rats, diet 4 wk, obese control = 1.00, means ± SD (n = 12)
Procedure: as §3, §4

[11] = test system: fatty acid binding protein (FABP); experiment: Relative mRNA concentration in liver, fatty acid uptake: FABP; type: in vivo, Zucker rats
Procedure: as §3, §4

[12] = test system: fatty acid transport protein (FATP); experiment: Relative mRNA concentration in liver, fatty acid uptake: FATP; type: in vivo; settings: liver of obese Zucker rats, diet 4 wk, obese control = 1.00, means ± SD (n = 12)
Procedure: as §3, §4

[13] = test system: scavenger receptor CD36; experiment: Relative mRNA concentration in liver, fatty acid uptake: CD36; type: in vivo; settings: liver of obese Zucker rats, diet 4 wk, obese control = 1.00, means ± SD (n = 12)
Procedure: as §3, §4

[14] = test system: lipoprotein lipase (LPL); experiment: Relative mRNA concentration in liver, fatty acid uptake: LPL; type: in vivo; settings: liver of obese Zucker rats, diet 4 wk, obese control = 1.00, means ± SD (n = 12)
Procedure: as §3, §4

[15] = test system: acyl-CoA oxidase (ACO); experiment: Relative mRNA concentration in liver, fatty acid oxidation: ACO; type: in vivo; settings: liver of obese Zucker rats, diet 4 wk, obese control = 1.00, means ± SD (n = 12)
Procedure: as §3, §4

[16] = test system: liver-type carnitine-palmitoyltransferase (L-CPT) I; experiment: Relative mRNA concentration in liver, fatty acid oxidation: L-CPT I; type: in vivo; settings: liver of obese Zucker rats, diet 4 wk, obese control = 1.00, means ± SD (n = 12)
Procedure: as §3, §4

[17] = obese (fa/fa) Zucker rats, supplemented diet fed 4 wk, means ± SD (n = 12)
[18] = within the obese rats, in words, P<0.05 where different
[19] = liver of obese Zucker rats, diet 4 wk, obese control = 1.00, means ± SD (n = 12)

SMILES: C[N+](C)(C)CC(O)CC(=O)[O-] (centres unmarked) [carnitine]
- Daily body weight gain [1, 17]: 4.85 ± 0.48 ^a g
- Feed conversion ratio [1, 17]: 5.18 ± 0.63 ^bc g/g
- Feed intake [1, 17]: 25.1 ± 3.4 ^b g/d
- Final body weight [1, 17]: 496 ± 31 ^a g
- Total body weight gain [1, 17]: 138 ± 13 ^a g
- Daily feed intake compared with the obese control group [1, 18]: did not differ
- Feed conversion ratio compared with the obese control group [1, 18]: did not differ much
- Absolute organ weights: Heart [2]: 1.36 ± 0.12 g
- Absolute organ weights: Kidney [2]: 2.75 ± 0.66 g
- Absolute organ weights: Liver [2]: 25.0 ± 2.8 ^a g
- Relative organ weights: Heart [2]: 2.73 ± 0.15 ^b mg/g body weight
- Relative organ weights: Kidney [2]: 5.52 ± 1.17 mg/g body weight
- Relative organ weights: Liver [2]: 50.4 ± 4.4 ^a mg/g body weight
- Cholesterol, HDL [3]: 4.64 ± 0.50 ^a mmol/L
- Cholesterol, Plasma [3]: 7.68 ± 0.92 ^ab mmol/L
- Cholesterol, VLDL + LDL [3]: 3.12 ± 0.39 ^b mmol/L
- Triacylglycerols, Plasma [3]: 4.41 ± 0.85 ^c mmol/L
- Triacylglycerols, VLDL + LDL [3]: 2.65 ± 0.57 ^b mmol/L
- TAG concentration in plasma compared with the niacin+DHA+carnitine group ([3]; in words): lower
- TAG concentrations in plasma compared with the control group ([3]; in words): lower
- Cholesterol in the VLDL+LDL fraction compared with the obese control group ([3]; in words): did not differ
- TAG concentration in the VLDL+LDL fraction compared with the obese control group ([3]; in words): did not differ
- Glucose in plasma [4]: 7.86 ± 0.75 ^ab mmol/L
- Fasting glucose concentration compared with the obese control group [4]: did not differ
- NEFA in plasma [5]: 2.41 ± 0.57 ^b mmol/L
- NEFA concentrations in plasma compared with the obese control group [5]: lower
- Leptin in plasma [6]: 6.09 ± 1.29 ^bc ng/mL
- Leptin concentrations in plasma compared with the obese control group [6]: did not differ
- Adiponectin in plasma [7]: 122 ± 12 ng/mL
- Relative mRNA concentration, SREBP-1c [8, 19]: 0.78 ± 0.31 ^ab
- Relative mRNA concentration of SREBP-1c in the liver compared with the obese control group [8, 18]: did not differ
- Gene expression of fatty acid synthase ([9]; conclusions, liver of obese diabetic rats, in words): lowered
- Relative mRNA concentration, FAS [9, 19]: 0.53 ± 0.49 ^b
- Relative mRNA concentration of FAS in the liver compared with the obese control group [9, 18]: lower
- Relative mRNA concentration, SCD [10]: 0.99 ± 0.33 ^a
- Relative mRNA concentration of FABP in the liver compared with the other groups ([11]; in words, P<0.05 where different): did not differ
- Relative mRNA concentration, FABP [11, 19]: 0.83 ± 0.29 ^ab
- Relative mRNA concentration, FATP [12]: 0.93 ± 0.76
- Relative mRNA concentration, CD36 [13]: 0.87 ± 0.22 ^a
- Relative mRNA concentration, LPL [14]: 1.04 ± 0.20
- Relative mRNA concentration, ACO [15]: 1.15 ± 0.37
- Relative mRNA concentration, L-CPT I [16]: 1.15 ± 0.41

SMILES: O=C(O)c1cccnc1 [niacin, pyridine-3-carboxylic acid, reference compound]
- Daily body weight gain [1, 17]: 4.95 ± 0.73 ^a g
- Feed intake [1, 17]: 26.2 ± 2.3 ^ab g/d
- Final body weight [1, 17]: 500 ± 43 ^a g
- Total body weight gain [1, 17]: 141 ± 19 ^a g
- Daily feed intake compared with the obese control group [1, 18]: did not differ
- Absolute organ weights: Kidney [2]: 2.57 ± 0.49 g
- Lowering of cholesterol in plasma and VLDL/LDL ([3]; conclusions, obese diabetic rats, in words): significant effect on lowering
- Cholesterol, HDL [3]: 4.54 ± 0.54 ^a mmol/L
- Cholesterol, Plasma [3]: 6.91 ± 1.13 ^b mmol/L
- Cholesterol, VLDL + LDL [3]: 2.70 ± 0.27 ^c mmol/L
- Triacylglycerols, Plasma [3]: 3.17 ± 0.40 ^d mmol/L
- Triacylglycerols, VLDL + LDL [3]: 2.08 ± 0.40 ^c mmol/L
- TAG concentration in plasma compared with the niacin+DHA+carnitine group ([3]; in words): lower
- TAG concentrations in plasma compared with the control group ([3]; in words): lower
- Cholesterol in the VLDL+LDL fraction compared with the obese control group ([3]; in words): lower
- TAG concentration in the VLDL+LDL fraction compared with the obese control group ([3]; in words): lower
- Glucose in plasma [4]: 7.36 ± 0.64 ^b mmol/L
- Fasting glucose concentration compared with the obese control group [4]: lower
- NEFA in plasma [5]: 2.25 ± 0.46 ^b mmol/L
- NEFA concentrations in plasma compared with the obese control group [5]: lower
- Leptin in plasma [6]: 6.17 ± 0.71 ^b ng/mL
- Leptin concentrations in plasma compared with the obese control group [6]: higher
- Adiponectin in plasma [7]: 134 ± 21 ng/mL
